Where “and” joins values, the source holds several entries; their conditions need not be identical. Equal entries are not always repeated. Entries after “also recorded” stand apart in the source; their conditions may differ. Where two headings read alike, the source gives them in different places.
Experiments:
hTRPML2-YFP = molecular target: T1, hTRPML2-YFP (Homo sapiens, UniProt Q8IZK6); assay: Fluo-4 Ca2+ influx assay, HEK293 stably expressing hTRPML2-YFP, activated with ML-SA1; format: cell-based
T1 construct: expressed in transfected cells
T1 sequence (Q8IZK6 1-566): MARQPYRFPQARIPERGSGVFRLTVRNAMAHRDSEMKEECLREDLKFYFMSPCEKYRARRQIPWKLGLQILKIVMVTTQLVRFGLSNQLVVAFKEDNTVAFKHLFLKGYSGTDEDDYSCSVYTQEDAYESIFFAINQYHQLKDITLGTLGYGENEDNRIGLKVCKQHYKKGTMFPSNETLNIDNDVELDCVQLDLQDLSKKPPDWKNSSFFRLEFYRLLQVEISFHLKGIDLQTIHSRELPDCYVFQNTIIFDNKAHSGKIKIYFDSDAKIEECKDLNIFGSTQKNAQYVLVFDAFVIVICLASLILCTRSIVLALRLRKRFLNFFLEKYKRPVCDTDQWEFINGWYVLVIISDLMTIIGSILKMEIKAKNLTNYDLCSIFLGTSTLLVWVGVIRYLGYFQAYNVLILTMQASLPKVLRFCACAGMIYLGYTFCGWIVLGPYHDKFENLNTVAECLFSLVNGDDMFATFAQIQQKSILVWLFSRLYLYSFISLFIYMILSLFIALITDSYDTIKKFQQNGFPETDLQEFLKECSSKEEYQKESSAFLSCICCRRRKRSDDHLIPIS

human ERα = molecular target: T2, human ERα (Homo sapiens, UniProt P03372); assay: Yeast estrogen receptor assay (YES-assay), Saccharomyces cerevisiae transfected with human ERα, lacZ reporter; format: cell-based; settings: 0.01-100 µM, 48 h
T2 construct: host or cells: Saccharomyces cerevisiae
T2 sequence (P03372 whole entry): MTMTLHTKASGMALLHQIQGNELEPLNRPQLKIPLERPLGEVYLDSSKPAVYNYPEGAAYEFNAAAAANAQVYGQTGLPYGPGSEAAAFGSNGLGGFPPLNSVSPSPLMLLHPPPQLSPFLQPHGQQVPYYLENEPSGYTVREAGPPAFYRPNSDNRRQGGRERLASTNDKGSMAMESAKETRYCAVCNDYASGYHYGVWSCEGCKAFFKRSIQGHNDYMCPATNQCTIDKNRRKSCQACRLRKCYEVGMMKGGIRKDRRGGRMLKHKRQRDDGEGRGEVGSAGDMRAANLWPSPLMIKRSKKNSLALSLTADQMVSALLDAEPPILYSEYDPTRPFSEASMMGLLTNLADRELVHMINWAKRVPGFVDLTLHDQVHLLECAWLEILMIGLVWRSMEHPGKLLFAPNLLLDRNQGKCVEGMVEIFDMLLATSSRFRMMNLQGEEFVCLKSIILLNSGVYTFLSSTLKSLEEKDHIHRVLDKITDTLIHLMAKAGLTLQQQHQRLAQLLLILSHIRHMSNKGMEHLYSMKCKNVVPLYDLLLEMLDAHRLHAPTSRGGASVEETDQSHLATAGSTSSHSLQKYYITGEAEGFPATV
Experimental: The yeast estrogen receptor assay (YES-assay) was provided by Dr. J.P. Sumpter (Brunel University, Uxbridge, UK; Routledge & Sumpter, 1996) and was used to determine the relative transactivation activity of the human ERα in response to test substances as previously described. Briefly, Saccharomyces cerevisiae stably transfected with a human ERα construct and an estrogen responsive element fused to the reporter gene lacZ encoding for β-galactosidase were treated with the test substances for 48 h. The β-galactosidase enzymatic activity was measured in a colorimetric assay using the substrate chlorophenol red β-D-galactopyranoside (Roche Diagnostics, Mannheim Germany). Formation of chlorophenol red was measured at 540 nm. For the test, all compounds were diluted in DMSO. 17β-estradiol (10 nM; Sigma, Deisenhofen, Germany) served as positive control and DMSO was used as vehicle control. All compounds, were dose dependently tested in a concentration range of 0.01–100 µM, using technical quadruplicates and biological triplicates.

hTRPML3-YFP = molecular target: T3, hTRPML3-YFP (Homo sapiens, UniProt Q8TDD5); assay: Fluo-4 Ca2+ influx assay, HEK293 stably expressing hTRPML3-YFP, activated with ML-SA1; format: cell-based
T3 construct: expressed in transfected cells
T3 sequence (Q8TDD5 whole entry): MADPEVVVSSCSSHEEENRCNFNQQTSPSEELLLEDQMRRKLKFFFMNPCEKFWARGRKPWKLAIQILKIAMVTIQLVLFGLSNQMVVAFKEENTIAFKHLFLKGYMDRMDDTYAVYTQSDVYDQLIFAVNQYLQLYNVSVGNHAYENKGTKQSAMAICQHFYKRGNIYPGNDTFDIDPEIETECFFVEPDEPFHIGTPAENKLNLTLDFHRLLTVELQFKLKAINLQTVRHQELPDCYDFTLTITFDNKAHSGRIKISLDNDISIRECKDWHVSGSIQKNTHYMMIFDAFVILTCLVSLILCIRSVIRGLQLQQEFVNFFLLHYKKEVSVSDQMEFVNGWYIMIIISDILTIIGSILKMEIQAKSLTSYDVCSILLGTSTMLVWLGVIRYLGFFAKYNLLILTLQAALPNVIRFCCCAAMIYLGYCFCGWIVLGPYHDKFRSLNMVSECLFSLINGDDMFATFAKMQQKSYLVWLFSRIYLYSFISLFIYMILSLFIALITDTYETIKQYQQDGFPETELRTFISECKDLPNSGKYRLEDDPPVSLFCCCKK
Experimental: (§1) To identify inhibitors of TRPML1 and TRPML3, the Spectrum Collection compound library (MS Discoveries; 2000 compounds) and additional 430 bioactive compounds were screened. To this end, fluorometric Ca^2+ influx assays were performed by using the calcium dye Fluo-4/AM (Invitrogen, Thermo Fisher Scientific, Waltham, MA, USA) and a custom-made fluorescence imaging plate reader built into a robotic liquid handling station (Freedom Evo 150, Tecan, Männedorf, Switzerland). All measurements were done in a HEPES buffered solution (HBS), containing 132 mM NaCl, 6 mM KCl, 1 mM MgCl2, 1 mM CaCl2, 5.5 mM D-glucose, 10 mM HEPES, pH 7.4. Screening compounds dissolved in DMSO (10 mM) were prediluted in 150 mM NaCl, 20 mM HEPES, pH 7.4, to a concentration of 200 µM. For primary screens, HEK293 stably expressing plasma membrane-targeted TRPML1 or TRPML3 were trypsinized and resuspended in cell culture medium supplemented with 4 µM Fluo-4/AM. After incubation at 37 °C for 30 min, the cell suspension was briefly centrifuged resuspended in HBS, and dispensed into black pigmented, clear-bottom 384-well microwell plates (Greiner μClear, Frickenhausen, Germany). Plates were placed into the FLIPR and fluorescence signals (excitation 470 nm, emission 515 nm) were recorded with a Zyla 5.5 camera (Andor, Belfast, UK) and the μManager software like previously described. In a first video, compound libraries were successively added to the cells with the Tecan 96-tip multichannel arm to a final concentration of 20 µM to map unspecific effects like autofluorescence or toxicity. In a second step the agonist ML-SA1 was pipetted in each well and fluorescence signals were recorded for 10 min. Analyses were done by calculating fluorescence intensities for each well and background areas with ImageJ (National Institutes of Health, Bethesda, MD, USA). Finally, the background was subtracted and the fluorescence intensities were normalized to initial intensities (F/F0). Concentration response curves were generated by the same procedure but compounds were manually prediluted in 96-well plates containing HBS, now supplemented with 0.1% bovine serum albumin. Here data was fitted to a four-parameter Hill equation to obtain Imin, Imax, IC50), and the Hill coefficient n.

hTRPML1∆NC-YFP [1] = format: cell-based, human
Experimental: as §1, with “All measurements were done in a HEPES buffered solution (HBS), containing 132 mM NaCl, 6 mM KCl, 1 mM MgCl2, 1 mM CaCl2, 5.5 mM D-glucose, 10 mM HEPES, pH 7.4.” left out

hTRPML1∆NC-YFP [2] = molecular target: T4, hTRPML1∆NC-YFP (Homo sapiens, UniProt Q9GZU1); format: cell-based; settings: for IC50: read-out: TRPML1 IC50, Fluo-4, 5 µM ML-SA1, Fig. 2a/4, Table S1
T4 sequence (Q9GZU1 whole entry): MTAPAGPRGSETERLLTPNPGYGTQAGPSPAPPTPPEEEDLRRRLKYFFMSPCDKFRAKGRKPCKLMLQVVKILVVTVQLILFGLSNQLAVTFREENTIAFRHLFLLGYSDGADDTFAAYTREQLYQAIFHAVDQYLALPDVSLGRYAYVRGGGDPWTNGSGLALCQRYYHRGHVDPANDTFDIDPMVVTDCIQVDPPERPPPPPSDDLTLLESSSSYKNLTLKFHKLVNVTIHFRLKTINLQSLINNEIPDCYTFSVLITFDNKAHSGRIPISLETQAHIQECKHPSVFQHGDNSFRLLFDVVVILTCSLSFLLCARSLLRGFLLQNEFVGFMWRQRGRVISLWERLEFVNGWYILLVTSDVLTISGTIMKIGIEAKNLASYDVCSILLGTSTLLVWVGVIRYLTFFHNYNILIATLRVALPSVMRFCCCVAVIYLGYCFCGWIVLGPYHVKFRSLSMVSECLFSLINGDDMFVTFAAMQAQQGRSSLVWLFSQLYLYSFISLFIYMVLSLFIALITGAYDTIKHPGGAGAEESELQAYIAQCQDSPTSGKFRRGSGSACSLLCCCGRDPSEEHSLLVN
Experimental: as §1, with “All measurements were done in a HEPES buffered solution (HBS), containing 132 mM NaCl, 6 mM KCl, 1 mM MgCl2, 1 mM CaCl2, 5.5 mM D-glucose, 10 mM HEPES, pH 7.4.” left out

LC3 = assay: Autophagy assay, LC3 immunoblot in human fibroblasts (Fed/Hbss, with bafilomycin A1); format: cell-based; settings: Hbss starvation, with BafA1
Experimental: 5 × 10^4 wild-type human fibroblasts were seeded in a 12-well plate and treated overnight with DMSO or different TRPML1 inhibitors (EDME, PRU-10, PRU-12). The day after, cells were treated for 3 h in full media (Fed) or HBSS supplemented with 10 mM HEPES (nutrient starved) in presence of DMSO or different TRPML1 inhibitors (EDME, PRU-10, PRU-12). For autophagic flux experiments, cells were co-treated with 100 nM of bafilomycin A1 (Sigma).
Total cell lysates were prepared using TRIS HCl 10 mM pH 8.0 and 0.2% SDS supplemented with protein and phosphatase inhibitors (Sigma). Protein concentration was determined using the Bradford method. After SDS–polyacrylamide gel electrophoresis (PAGE) and immunoblotting, the protein recognized by the specific antibody was visualized by chemiluminescence methods (Luminata Crescendo Western HRP substrate, Millipore) using HRP-conjugated anti-rabbit or anti-mouse secondary antibodies (Cell Signalling). Images were acquired using Li-Cor Odyssey Fc Imaging System and densitometric quantification of unsaturated images was performed using ImageJ software (NIH). Uncropped and unprocessed western blot scans are provided as Fig. S1. The following primary antibodies were used: LC3 (Novus Cat. No. NB100-2220, 1:1000 in 5% milk), TFEB (Cell Signaling Cat. No. 4240, 1:1000 in 5% BSA) and β-actin (Santa Cruz Cat. No. Sc-47778, 1: 1000 in 5% BSA).

hTRPML1∆NC-YFP [3] = molecular target: T4, hTRPML1∆NC-YFP; settings: 10 µM compound after 10 µM ML-SA1
Experimental: Single cell Ca^2+ imaging experiments were performed using Fura-2 as previously described. HEK293 cells stably expressing hTRPML1∆NC-YFP, hTRPML2-YFP, hTPPML3-YFP or hTPC2L11A/L12A-RFP (22, 24) were cultured at 37 °C with 5% of CO2 in Dulbecco’s modified Eagle medium (Thermo Fisher), supplemented with 10% fetal bovine serum, 100 U/mL penicillin, and 0.1 mg/mL streptomycin. Cells were plated onto poly-L-lysine (sigma)-coated glass coverslips and grown for 2–3 days. For Ca^2+ imaging experiments cells were loaded for 1 h at room temperature with Fura-2 AM (4.0 µM) and 0.005% (v/v) pluronic acid (both from Thermo Fisher) in HEPES-buffered solution (HBS) comprising 138 mM NaCl, 6 mM KCl, 2 mM MgCl2, 2 mM CaCl2, 10 mM HEPES, and 5.5 mM D-glucose (adjusted to pH 7.4 with NaOH). After loading, cells were washed with HBS and mounted in an imaging chamber. All recordings were performed in HBS. Ca^2+ imaging was performed using a Leica DMi8 live cell microscope. Fura-2 was excited at 340 nm/380 nm. Emitted fluorescence was captured using 515 nm long-pass filter. Compounds were pre diluted in DMSO and stored as 10 mM stock solutions at − 20 °C, not exceeding three months. Working solutions were prepared directly before using by dilution with HBS.

[4] = TRPML2 IC50, Fluo-4, 5 µM ML-SA1, Table S1
[5] = Fluo-4, 5 µM ML-SA1, Table S1, read-out: TRPML3 IC50

SMILES	IC50 (hTRPML2-YFP; [4])	effect/efficacy at ERα (human ERα)	IC50 (hTRPML3-YFP; [5])	TRPML isoform selectivity profile (hTRPML1∆NC-YFP [1]; TRPML1, 2, 3 and TPC2, Fluo-4)	TRPML1:TRPML2 fold selectivity (hTRPML1∆NC-YFP [1]; ratio of Fluo-4 IC50 values)	TRPML1:TRPML3 fold selectivity (hTRPML1∆NC-YFP [1]; ratio of Fluo-4 IC50 values)	IC50 (hTRPML1∆NC-YFP [2])	TRPML1 versus TRPML3 selectivity (hTRPML1∆NC-YFP [1]; Fluo-4, TRPML1 vs TRPML3, 5 µM ML-SA1)	concentration showing efficacy on autophagy (LC3) (LC3)	effect on autophagy (LC3) at 10 nM or 1 µM (LC3)	IC50 (hTRPML2-YFP; Fluo-4, 5 µM ML-SA1, Table S1, read-out: TRPML2 IC50)	IC50 (hTRPML3-YFP)	activity in concentration-response measurements on TRPML1 (hTRPML1∆NC-YFP [2]; Fluo-4, 5 µM ML-SA1)	efficacy in blocking TRPML1, Fura-2 (hTRPML1∆NC-YFP [3])
C[C@]12CC[C@@H]3c4ccc(Oc5ccccc5)cc4CC[C@H]3[C@@H]1CC[C@@H]2O [PRU-8]	15.3 µM	strong effect	38.6 µM	further improved selectivity profile compared to EDME; also recorded: very good selectivity profile	21.28 fold	53.68 fold	0.72 µM	–	–	–	–	–	–	–
C[C@]12CC[C@@H]3c4ccc(O)cc4CC[C@H]3[C@@H]1CC[C@@H]2O [Estradiol, 17β-estradiol]	30.4 µM	–	> 50 µM	–	5.77 fold	–	5.3 µM	stronger inhibitory effects on TRPML1 than on TRPML3	10 µM	no effect	–	–	–	–
COc1ccc2c(c1)CC[C@@H]1[C@@H]2CC[C@]2(C)[C@H](O)CC[C@@H]12 [PRU-2]	–	relatively low efficacy; also recorded: weakest effects	–	–	2.67 fold	–	13.8 µM and 14 µM	–	–	–	37 µM	> 50 µM	only poor activity	exception

Reference: paper PMC8050276, “Estradiol analogs attenuate autophagy, cell migration and invasion by direct and selective inhibition of TRPML1, independent of estrogen receptors” (Scientific Reports, 2021)
